Values of other authors in patent US20170143675A1, “FORMULATIONS FOR TREATMENT OF HYPERTHYROIDISM” (DENDROPHARM GMBH, priority 2014, published 2017).
Where two headings read alike, the source gives them in different places.

Columns and labels:
cats = details: randomized trial

In the case of `Cn1ccnc1S` [methimazole, 2-mercapto-1-methylimidazole], the transdermal uptake (after a single dose in PLO) is listed as “poor”, the “reduction of the serum T4 concentration” value (chronic transdermal administration in PLO) is listed as “effective” and the “cats with gastrointestinal side effects” value (cats; oral administration) is listed as 24%. For the same compound, the “cats with gastrointestinal side effects” value (cats; transdermal administration in PLO) was 4%.
